Measurements from patent publication US20030215462A1, “Use of UGT inhibitors to increase bioavailability” (priority 2001, published 2003).

Molecular target: T1, UGT1A8 (Homo sapiens, UniProt Q9HAW9)
T1 sequence (Q9HAW9 26-530): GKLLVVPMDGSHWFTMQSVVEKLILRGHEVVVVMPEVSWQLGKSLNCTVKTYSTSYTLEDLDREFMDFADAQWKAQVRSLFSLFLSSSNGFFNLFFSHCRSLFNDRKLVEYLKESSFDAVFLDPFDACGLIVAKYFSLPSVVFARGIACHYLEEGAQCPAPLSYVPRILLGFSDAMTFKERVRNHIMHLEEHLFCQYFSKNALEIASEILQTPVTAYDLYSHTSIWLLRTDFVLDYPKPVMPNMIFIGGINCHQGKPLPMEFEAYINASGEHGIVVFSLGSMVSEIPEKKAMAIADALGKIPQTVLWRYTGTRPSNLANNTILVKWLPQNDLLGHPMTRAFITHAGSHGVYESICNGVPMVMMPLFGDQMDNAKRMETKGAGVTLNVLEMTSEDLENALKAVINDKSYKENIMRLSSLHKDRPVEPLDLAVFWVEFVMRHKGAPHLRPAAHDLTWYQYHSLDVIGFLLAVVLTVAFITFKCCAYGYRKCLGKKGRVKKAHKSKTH

labetalol metabolism, in words: No detectable metabolism was observed
SMILES: CC(CCc1ccccc1)NCC(O)c1ccc(O)c(C(N)=O)c1 (stereo not shown) [Labetalol, labetalol]
